Results on 33 compounds are retold here after patent EP0863156A1, “Peptides useful as somatostatin antagonists” (American Cyanamid Company, priority 1997, dated 1998).

For assay [1], the target named is SRIF receptors expressed in S. cerevisiae (yeast) LY364 cells. Kind of assay: cell-based or functional assay.
Assay [2] deals with T1, SSTR2 (Rattus norvegicus, UniProt P30680). Kind of assay: cAMP accumulation in forskolin-stimulated GH4C1/SSTR2 cells (SPA radioimmunoassay). It is filed as cell-based. Details: expressed in transfected cells; host or cells: GH4C1 rat pituitary tumor cells. To be noted: test peptide 2 µM; percent reversal of SSTR2 activation by SRIF or MK678; 0% = forskolin plus agonist, 100% = forskolin alone.
Method: This is the basis of a common assay for SRIF agonists and antagonists, whereby SRIF agonists reduce artificially stimulated cAMP levels, and SRIF antagonists reverse the effect of SRIF. […] This increases the response to SRIF and provides a greater dynamic range for the measurement of SRIF antagonist activity.
Stimulation of cells. GH4C1/SSTR2 cells, grown in DMEM with 10% bovine serum, are released from a tissue culture dish by incubation for several minutes at 37° C with PBS containing 0.5 mM EDTA. Cells are washed in induction buffer (PBS containing 100 µM IBMX (an inhibitor of cAMP breakdown) and 2 mM CaCl2) at room temperature, and resuspended at 2 x 10^6/mL in induction buffer. Into each well of a 96-well tray are added 50 µL of a 2 X concentration of stimulants in induction buffer. […] To initiate stimulation of the cells, 50 µL (100,000) cells are added to each well, mixed by shaking 10 seconds on a plate shaker and placed at 37° C for 15 minutes. Stimulation is arrested and cells are lysed by adding 15 µL 0.33 N HCI to each well and incubating the plate for 30 minutes at 37° C. Samples are neutralized by addition of 15 µL 0.25 N NaOH/50 mM Hepes pH 7.4. Baseline cAMP levels are determined in samples with no added forskolin or SRIF, and each treatment is performed in triplicate.
cAMP assay. To measure accumulated cAMP in the samples, a radioimmunoassay is employed. The scintillation proximity assay (SPA, Amersham, Arlington Heights, IL) allows the rapid measurement of ^125I cAMP bound to a specific antibody without separating bound radioligand from free radioligand. Each of the following reagents (15 µL) are added per well in a 96-well tray: supernatants from the cell stimulation; ^125I cAMP; SPA beads conjugated to monkey anti-rabbit IgG antibodies; and rabbit anti-cAMP antibodies. For the standard curve, known amounts of cAMP (0.2 - 12.8 pmol) are added in place of cell supernatants. The 96-well tray is sealed, shaken at room temperature overnight and measured for bound radioligand in a MicroBeta liquid scintillation counter (Wallac, Gaithersburg. MD).
The intrinsic activity of an SRIF antagonist is the percent reversal of the SSTR2 activation by SRIF or MK678, wherein 0% is defined by cAMP levels in samples treated with forskolin plus SRIF or MK678 and 100% is the cAMP level measured after treatment with forskolin alone. Therefore, increased intrinsic activity of a test compound indicates increased antagonist activity of said test compound.
An inverse agonist is a compound that is not only a pure antagonist (i.e. lacking agonist activity), but also blocks the constitutive activity of an unoccupied receptor. One indication of inverse agonist activity is the ability of a SRIF antagonist to increase cAMP levels in the absence of added SRIF.

Assay [3] addresses T2, SRIF receptors (Rattus norvegicus, UniProt P30680).
T2 construct: expressed in transfected cells; host or cells: Saccharomyces cerevisiae strain LY364
The assay is described as follows: Yeast bioassay for SRIF antagonist activity (zone of growth inhibition of LY364 cells growing in response to SRIF). Type of assay: cell-based. To be noted: Table III; diameter of zone of growth inhibition; 10 µL of 5 mg/mL on filter disk; S-14 10 nM. How it is done:
Agar plates containing LY364 cells that are growing in the presence of added SRIF are the basis for a sensitive SRIF antagonist assay, whereby zones of growth inhibition result from the addition of SRIF antagonists to the surface of the agar plate (see L.A. Price, et al., Molecular and Cellular Biology, 15, 6188-6195, 1995, incorporated herein by reference).
In this assay, LY364 cells are grown overnight in 2 mL of synthetic complete(SC) medium (3.4 g/L YNB without amino acids and ammonium sulfate, 10 g/L ammonium sulfate and 1.4 g/L CSM-ura-trp) with glucose (2%) and without uracil and tryptophan. These cells are washed and cultured for 4 to 8 hours in 5 mL of SC medium with lactate (3%) and without uracil and tryptophan, and finally grown overnight in 5 mL of SC medium with galactose (2%) and without uracil and tryptophan. Molten (50° C) SC agar medium with galactose (2%) and without uracil, tryptophan and histidine is adjusted to pH 6.8 with KOH, mixed with 2 x 10^4 cells/mL and SRIF (S-14, 10 nM) and poured into square (20 x 20 cm) petri dishes. Sterile filter disks are placed on the surface of the agar, and saturated with 10 µL of water or DMSO containing 5 mg/mL test peptides. After three days, the plates display a uniform cloudy background of […] cells growing in response to the added SRIF. […] This zone is quantified by measuring its diameter (mm), which varies according to the potency of the SRIF antagonist. Those peptides or mixtures of peptides displaying the largest zones of inhibition are further characterized.
Values are compared among samples in the same experiment, as the degree of yeast growth varies somewhat from assay to assay. For the first five sample types, in which progressively less complex mixtures of peptides are found, this assay is the primary determining factor in choosing which samples form the basis of subsequent syntheses.
Plates are read after 3 days. Samples shown in Table I in bold type are chosen for further synthesis. In Table I, all amino acids are D-amino acids and dashes represent undefined amino acid residues.

Assay [4] deals with T1, SSTR2. The assay is described as follows: cAMP accumulation in forskolin-stimulated GH4C1/SSTR2 cells (SPA radioimmunoassay). Type of assay: cell-based. The following applies: cAMP level, dose response of SRIF agonist + 10 µM peptide 1, forskolin stimulated cells. More on the design: expressed in transfected cells; host or cells: GH4C1 rat pituitary tumor cells (GH4C1/SSTR2). The text has this:
A primary effect of SRIF upon mammalian cells is the reduction of cyclic adenosine 3',5'-monophosphate(cAMP) levels, via inhibition of adenylyl cyclase. This is the basis of a common assay for SRIF agonists and antagonists, whereby SRIF agonists reduce artificially stimulated cAMP levels, and SRIF antagonists reverse the effect of SRIF. The rat pituitary tumor cell line GH4C1 predominantly expresses SSTR2, and responds to SRIF and to forskolin, a stimulator of adenylate cyclase (see C.M. Eppler, et al., J. Biol. Chem., 267, 15603-15612, 1992, incorporated herein by reference). […] This increases the response to SRIF and provides a greater dynamic range for the measurement of SRIF antagonist activity.
Stimulation of cells. GH4C1/SSTR2 cells, grown in DMEM with 10% bovine serum, are released from a tissue culture dish by incubation for several minutes at 37° C with PBS containing 0.5 mM EDTA. Cells are washed in induction buffer (PBS containing 100 µM IBMX (an inhibitor of cAMP breakdown) and 2 mM CaCl2) at room temperature, and resuspended at 2 x 10^6/mL in induction buffer. Into each well of a 96-well tray are added 50 µL of a 2 X concentration of stimulants in induction buffer. […] Baseline cAMP levels are determined in samples with no added forskolin or SRIF, and each treatment is performed in triplicate.
cAMP assay. […] The 96-well tray is sealed, shaken at room temperature overnight and measured for bound radioligand in a MicroBeta liquid scintillation counter (Wallac, Gaithersburg. MD). The standard curve is determined for each experiment by performing a nonlinear regression (exponential decay) analysis of cpm measured for the cAMP standards vs. their log concentrations, and test sample values are determined by using Prism software (Graphpad Software Inc., San Diego, CA) and are shown in Table II and Figure 1.
The intrinsic activity of an SRIF antagonist is the percent reversal of the SSTR2 activation by SRIF or MK678, wherein 0% is defined by cAMP levels in samples treated with forskolin plus SRIF or MK678 and 100% is the cAMP level measured after treatment with forskolin alone. […]

T1 sequence (P30680 whole entry): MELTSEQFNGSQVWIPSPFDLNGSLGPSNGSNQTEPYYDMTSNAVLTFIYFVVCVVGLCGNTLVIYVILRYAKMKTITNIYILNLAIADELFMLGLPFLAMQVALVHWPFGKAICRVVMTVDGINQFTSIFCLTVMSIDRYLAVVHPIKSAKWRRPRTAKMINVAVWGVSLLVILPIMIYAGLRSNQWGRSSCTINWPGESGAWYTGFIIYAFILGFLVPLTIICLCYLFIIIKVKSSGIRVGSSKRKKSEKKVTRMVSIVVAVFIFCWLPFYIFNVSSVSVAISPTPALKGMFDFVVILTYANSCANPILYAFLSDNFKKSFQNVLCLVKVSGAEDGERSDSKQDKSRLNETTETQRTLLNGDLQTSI
T2 sequence (P30680 whole entry): as above

For the compound “Ac-His-Phe-Ile-Arg-Trp-Trp-NH2 (all D), Seq Id No. 25 (peptide)”, the Inhibition Zone (mm), yeast bioassay for SRIF antagonist activity (LY364 cells growing on 10 nM S-14; 10 µL of 5 mg/mL peptide on a filter disk) in assay [1] turned out to be 16 mm.

“Ac-His-Phe-Ile-Arg-Trp-Ala-NH2 (all D), Seq Id No. 22 (peptide)” showed an Inhibition Zone (mm), yeast bioassay for SRIF antagonist activity (LY364 cells growing on 10 nM S-14; 10 µL of 5 mg/mL peptide on a filter disk) in assay [1] of 15 mm.

Consider h-i-r-w-f [Peptide 8], for which, in assay [2], the “cAMP Assay Intrinsic activity” value came to 2.76%. Further, the “Yeast Assay (mm)” value in assay [3] is given as “none”.

Consider f-h-i-r-w-f [Peptide 24], for which the “cAMP Assay Intrinsic activity” value in assay [2] is listed as 65.2%. Further, the “Yeast Assay (mm)” value in assay [3] was “none”.

“Ac-His-Phe-Ile-Arg-Trp-Leu-NH2 (all D), Seq Id No. 18 (peptide)” gave an Inhibition Zone (mm), yeast bioassay for SRIF antagonist activity (LY364 cells growing on 10 nM S-14; 10 µL of 5 mg/mL peptide on a filter disk) in assay [1] of 15 mm.

In the case of h-f-i-R-w-f [Peptide 16], in assay [2], the “cAMP Assay Intrinsic activity” value was found to be 43.6%. For the same compound, the “Yeast Assay (mm)” value in assay [3] worked out at 17 mm.

For k-y-i-r-w-f [Peptide 19], the “cAMP Assay Intrinsic activity” value in assay [2] worked out at 33.3%. Further, the “Yeast Assay (mm)” value in assay [3] was found to be 9 mm.

Take h-f-i-r-a-f [Peptide 6]: the “cAMP Assay Intrinsic activity” value in assay [2] came to 13.4%. Also, the “Yeast Assay (mm)” value in assay [3] worked out at 9 mm.

Take h-f-i-r-w-F [Peptide 18]: the “cAMP Assay Intrinsic activity” value in assay [2] was 46.7%. For the same compound, in assay [3], the “Yeast Assay (mm)” value was 19 mm.

Compound “Ac-His-Phe-Ile-Arg-Trp-Met-NH2 (all D), Seq Id No. 24 (peptide)” displayed an Inhibition Zone (mm), yeast bioassay for SRIF antagonist activity (LY364 cells growing on 10 nM S-14; 10 µL of 5 mg/mL peptide on a filter disk) in assay [1] of 18 mm.

Regarding h-f-I-r-w-f [Peptide 15], the “cAMP Assay Intrinsic activity” value in assay [2] stood at 9.71%. In addition, the “Yeast Assay (mm)” value in assay [3] came out at 9 mm.

With “Ac-His-Phe-Ile-Arg-Trp-Ile-NH2 (all D), Seq Id No. 21 (peptide)”, the Inhibition Zone (mm), yeast bioassay for SRIF antagonist activity (LY364 cells growing on 10 nM S-14; 10 µL of 5 mg/mL peptide on a filter disk) in assay [1] worked out at 16 mm.

As to “Peptide 1, Ac-D-His-D-Phe-D-Ile-D-Arg-D-Trp-D-Phe-NH2”, in assay [1], the Inhibition Zone (mm), yeast bioassay for SRIF antagonist activity (LY364 cells growing on 10 nM S-14; 10 µL of 5 mg/mL peptide on a filter disk) is 18 mm.

With a-f-i-r-w-f [Peptide 2], in assay [2], the “cAMP Assay Intrinsic activity” value was found to be 13.0%. The “Yeast Assay (mm)” value in assay [3] is on record as “none”.

On to “Ac-His-Phe-Ile-Arg-Trp-Gln-NH2 (all D), Seq Id No. 26 (peptide)”, for which the Inhibition Zone (mm), yeast bioassay for SRIF antagonist activity (LY364 cells growing on 10 nM S-14; 10 µL of 5 mg/mL peptide on a filter disk) in assay [1] came to 16 mm.

For the compound `CC(C)[C@@H]1NC(=O)[C@H](CCCCN)NC(=O)[C@@H](Cc2c[nH]c3ccccc23)NC(=O)[C@H](Cc2ccc(O)cc2)NC(=O)[C@H](C)N(C)C(=O)[C@H](Cc2ccccc2)NC1=O` [MK678], in assay [4], the Maximum amounted to 8.705 and the Minimum was 2.775.

Consider h-f-i-r-W-f [Peptide 17], for which, in assay [2], the “cAMP Assay Intrinsic activity” value was 50.2%. Further, in assay [3], the “Yeast Assay (mm)” value is on record as 19 mm.

Regarding f-i-r-w-f [Peptide 7], the “cAMP Assay Intrinsic activity” value in assay [2] is reported as -7.2%. For the same compound, in assay [3], the “Yeast Assay (mm)” value was “none”.

Regarding f-r-i-r-w-f [Peptide 25], in assay [2], the “cAMP Assay Intrinsic activity” value came out at 10.8%. Further, the “Yeast Assay (mm)” value in assay [3] is “none”.

On to h-y-i-r-w-f [Peptide 20], for which the “cAMP Assay Intrinsic activity” value in assay [2] stood at 56.5%. Also, in assay [3], the “Yeast Assay (mm)” value is 18 mm.

Take h-f-i-w-f [Peptide 10]: in assay [2], the “cAMP Assay Intrinsic activity” value was 25.3%. The “Yeast Assay (mm)” value in assay [3] came out at 14 mm.

With “Ac-His-Phe-Ile-Arg-Trp-Asn-NH2 (all D), Seq Id No. 23 (peptide)”, the Inhibition Zone (mm), yeast bioassay for SRIF antagonist activity (LY364 cells growing on 10 nM S-14; 10 µL of 5 mg/mL peptide on a filter disk) in assay [1] came out at 15 mm.

Take “Ac-His-Phe-Ile-Arg-Trp-Tyr-NH2 (all D), Seq Id No. 20 (peptide)”: the Inhibition Zone (mm), yeast bioassay for SRIF antagonist activity (LY364 cells growing on 10 nM S-14; 10 µL of 5 mg/mL peptide on a filter disk) in assay [1] stood at 16 mm.

As to h-f-i-r-w [Peptide 12], the “cAMP Assay Intrinsic activity” value in assay [2] was 29.1%. The “Yeast Assay (mm)” value in assay [3] is 16 mm.

As to h-w-i-r-w-f [Peptide 21], the “cAMP Assay Intrinsic activity” value in assay [2] is 54.7%. Further, the “Yeast Assay (mm)” value in assay [3] came out at 18 mm.

Take h-f-r-w-f [Peptide 9]: in assay [2], the “cAMP Assay Intrinsic activity” value turned out to be 6.36%. For the same compound, the “Yeast Assay (mm)” value in assay [3] is reported as 9 mm.

For the compound h-f-i-r-f [Peptide 11], the “cAMP Assay Intrinsic activity” value in assay [2] is reported as 12.1%. Moreover, the “Yeast Assay (mm)” value in assay [3] is 14 mm.

Regarding h-a-i-r-w-f [Peptide 3], the “cAMP Assay Intrinsic activity” value in assay [2] was 9.33%. In assay [3], the “Yeast Assay (mm)” value was “none”.

Compound “Ac-His-Phe-Ile-Arg-Trp-Thr-NH2 (all D), Seq Id No. 19 (peptide)” gave an Inhibition Zone (mm), yeast bioassay for SRIF antagonist activity (LY364 cells growing on 10 nM S-14; 10 µL of 5 mg/mL peptide on a filter disk) in assay [1] of 14 mm.

On to “Ac-His-Phe-Ile-Arg-Trp-Gly-NH2 (D-amino acids) (peptide)”, for which the Inhibition Zone (mm), yeast bioassay for SRIF antagonist activity (LY364 cells growing on 10 nM S-14; 10 µL of 5 mg/mL peptide on a filter disk) in assay [1] was found to be 13 mm.

In the case of h-f-i-k-w-f [Peptide 27], the “cAMP Assay Intrinsic activity” value in assay [2] amounted to 71.2%. For the same compound, in assay [3], the “Yeast Assay (mm)” value came out at 20.5 mm.

Take h-f-a-r-w-f [Peptide 4]: the “cAMP Assay Intrinsic activity” value in assay [2] amounted to 41.8%. In addition, the “Yeast Assay (mm)” value in assay [3] is recorded as 16 mm.

As for w-y-i-r-w-f [Peptide 23], the “cAMP Assay Intrinsic activity” value in assay [2] came out at 5.64%. In addition, the “Yeast Assay (mm)” value in assay [3] was “none”.
